Measurements: patent US20250263771A1, “SYSTEM AND METHODS TO MEASURE CELL VIABILITY IN HIGH THROUGHPUT VIA CONTINUOUS GEOMETRY” (priority 2022, published 2025)
Where two headings read alike, the source gives them in different places.

Columns and labels:
E. coli knockout mutants = test system: E. coli knockout mutants
Procedure: (§1) Strains and growth conditions: E. coli strain BW25113 was used unless otherwise noted in the text. This strain was acquired from the Yale Coli Genetic Stock Center. E. coli was grown in LB (Sigma Aldrich) at 37° C. in a shaking incubator. B. subtilis strain W168 was a kind gift from the Garner lab and was grown in LB at 37° C. in a shaking incubator. P. putida strain KT2440 was a kind gift from Jacob Fenster and was grown in LB at 30° C. in a shaking incubator. S. typhimurium strain SL1344 was a kind gift from the Corrie Detweiler and was grown in LB at 37° C. in a shaking incubator. S. cerevisiae strain BY4741 was a kind gift from Roy Parker and was grown in YEPD at 30° C. in a shaking incubator. P. aeruginosa strain PA01 was a kind gift from the Zemer Gitai and was grown in LB at 37° C. in a shaking incubator. Knockouts were selected from the Keio collection (Dharmacon). The PEC promoter library in E. coli was acquired from Dharmacon (PEC3877).
(§2) For stationary phase treatments, bacterial cells were grown overnight (≥16 hours) in a shaking incubator (180 RPM). For P. putida only, cells were grown for 2 days. Upon entering the stationary phase, cells were distributed into a 96 well flat-bottom plates with 100 μL of cells per well. Drug treatments at 1000× were plated into a separate 96 well-round bottom plate. A 100 nL pin transfer was used to dilute the drug plate into the cell plate at a 1:1000 ratio. This plate was then placed into a shaking incubator for the experimental time. To measure antibiotic treatments in the exponential phase, overnight culture was diluted 1:1000 into fresh LB. This culture was then placed into the incubator for 2 hours. After this incubation, the cells were then distributed to the 96 well plate followed by drug treatment.
(§3) Embedding for GVA: The goal for embedding was to have a uniformly mixed sample in liquid hydrogel that would quickly solidify the 3D mold. Applicants used 0.5% agarose as a convenient hydrogel that would solidify quickly and prevent cell motility once solidified.

stationary phase E. coli = details: for increase in viability as compared to either drug alone: 24 hours treatment
Procedure: as §2, §3

[1] = test system: promoters of genes downstream of lexA (pol, dinB, dinG, yjiH, lexA)
Text: (§4) Filamentation is a classic hallmark of SOS activation and increases in ROS are an established SOS activator. Therefore, Applicants wondered if DPI was activating SOS. Applicants examined the promoter activity of genes downstream of lexA using the PEC GFP-promoter library. LexA is a master transcriptional repressor of genes in the SOS regulon such as pol, dinB, dinG, and yjiH, and is auto-catalytically degraded by activated recA.
as §1
(§5) Microscopy measurements: For all microscopy experiments, cells from overnight cultures were diluted 1:100 in minimal media (PMM) and shaken for 2 hours at 37° C. to ensure cells had exited lag phase. After 2 hours of growth, 2 μL of dilute cell culture was added to the top of a cooled, 200 μL 2% low melt agarose pad with CellROX dye (5 μM). The agarose pad was molded to fit in 96-well square bottom plates (Brooks Automation, MGB096-1-2-LG-L). After 10 minutes of drying, the pad with affixed cells was inverted and pressed into the bottom of an imaging plate. Fields of view (FOV) were selected manually on the microscope. After FOVs were selected and before the imaging started, the drug was added on top as done previously.

S. typhimuirium = details: DPI crossed with ciprofloxacin or gentamicin
Procedure: as §1

[2] = test system: E. coli, stationary phase and exponential phase; test: GVA viability screen of an 80-compound drug library, 96 well format; assay type: cell-based, Escherichia coli; details: treated for 4 hours, duplicate
Procedure: FIGS. 27A-B: Screen of compounds that affect viability in exponential and stationary phase using data from a GVA assay in 96 well format drug testing. The antibiotic potential of a drug library (80 compounds) was tested against exponential and stationary phase bacteria in duplicate. (A) Viability reduction of compounds in exponential (top) and stationary (bottom) phase cells. Each x is the mean of 2 biological replicates. (B) Scatter plot of the viability screen comparing exponential and stationary phase activity. Each blue dot represents the mean of 2 replicates of a compound treatment. Red dots represent DMSO controls. The dashed lines represent 3 times the standard deviation of the negative controls. Screen was performed with E. coli with both stationary phase and exponential phase bacterial populations. Both phases were screened in duplicate. 80 compounds and 16 controls were screened. Cells in stationary and exponential phase were treated with the compound for 4 hours, followed by casting into pipet tips using the GVA protocol.

E. coli [3] = details: 4 hours of treatment, less than 10 μg/mL DPI
Text: as §4, §5

E. coli [4] = details: DPI and ciprofloxacin, optical density over 8 hours
Text: FIG. 6A-I: DPI generates ROS, activates the SOS response, and antagonizes ciprofloxacin. a) Median, single-cell CellROX signal as a function of time for DPI (blue), ciprofloxacin (orange), and an untreated control (yellow). b) Efficacy of DPI in aerobic and anaerobic conditions. […] Brightness and contrast is the same for all images. […] The dose response for the wild-type (WT) cells is depicted in green or purple, respectively. Shaded errorbars equal to the standard deviation in logspace between 3 replicates. […] Each square in the heatmap was the mean of duplicate conditions. Colorbar correspond to the log10 (CFUs/mL) for each dose combination. […] Optical density was measured for each condition over 8 hours and the integrated area under the growth curve (AUGC) is depicted (colorbar). i) Dose response curves for temporally staggered combinations. All treatments lasted for 24 hours total. Pretreated conditions were treated for 2 hours with a single drug followed by 22 hours with both drugs.
To test for antagonism, Applicants measured viability in a time-resolved, checkerboard assay using GVA (FIGS. 6f, 21). In the checkerboard assay, DPI was combined with either ciprofloxacin or gentamicin across a 6×6 dose matrix. The ease of GVA enabled sampling the checkerboard over time, resulting in a complete pharmacokinetic profile of the drug-drug interaction.

E. coli strain BW25113 = test: Geometric Viability Assay (GVA) of drug-treated stationary and exponential E. coli cultures; assay type: cell-based, Escherichia coli; details: for activity in dose response, stationary versus exponential cultures (follow up of Enzo library hits): stationary and exponential cultures; for activity in aerobic versus anaerobic environments: stationary phase cells; for resistance of stationary phase cells compared with exponentially growing cells: 3 antibiotics, 6 concentrations, 5 durations; for reduction in viability: within an hour
Text: Previous studies have found slow growth is a non-inheritable form of antibiotic tolerance buying time for viable cells to develop genetic resistance. Slow-growing cells commonly have reduced metabolic activity and DNA replication as compared to exponentially growing cells. As a result, slow-growing cells are refractory to antibiotics targeting DNA synthesis (fluoroquinolones), protein translation (aminoglycosides), and cell wall biogenesis (beta-lactams). Growth-dependent tolerance can only be observed by measuring viability but the tedium and cost of the drop CFU assay limits extensive profiling. Using GVA, Applicants directly compared the viability of exponentially growing cells and stationary phase cells to different doses of three antibiotics for varying amounts of time. In total, Applicants tested 3 antibiotics at 6 different concentrations for 5 different durations against stationary and exponential cells, in duplicate, for a total of 360 viability measurements (FIG. 5a,b).
To explore the GVA technique's potential for high throughput viability measurements, Applicants screened the ICCB Enzo Bioactive library (469 compounds) against stationary and exponentially growing cultures (FIG. 5c,d). […] The viability of BW25113 E. coli treated with the Enzo library was measured in both exponential and stationary phase. Including controls and removing pipette errors, 2267 conditions were measured. […] Mitomycin C is a known antibiotic acting through DNA cross-linking. […] Phentolamine is an α-adrenergic receptor antagonist.
as §2, §3

[5] = test system: cytoplasmic superoxide (ROS) in E. coli; test: Single-cell CellROX fluorescence (ROS levels) over time; assay type: cell-based, Escherichia coli; details: for effect on ROS (CellROX signal) over time: lethal dose, compared to untreated control
Procedure: as §5

[6] = 24 hours total, 2 hours single drug then 22 hours both drugs

`c1ccc2c(c1)[I+]c1ccccc1-2` [DPI, diphenyleneiodonium] was tested, and the “potency in knockouts of other DNA repair enzymes, redox repair enzymes, or ROS scavengers” value (E. coli knockout mutants; either growth phase) was “did not substantially change the potency”, the “susceptibility of recA knockouts” value (E. coli knockout mutants; recA knockout, stationary and exponential phases) was “more susceptible to DPI” and the “potency in yedZ and fre knockouts” value (E. coli knockout mutants; stationary cells) was “modestly increased the potency”. For the same compound, the “effect of 2 hours DPI pretreatment before adding ciprofloxacin” value (stationary phase E. coli; [6]) was “further increased protection”, the “effect of 2 hours ciprofloxacin pretreatment before DPI” value (stationary phase E. coli; [6]) was “reduced DPI's antagonistic effects” and the “increase in viability as compared to either drug alone” value (stationary phase E. coli; DPI combined with ciprofloxacin) was 1,000 fold. The “increase in viability as compared to either drug alone” value (stationary phase E. coli; DPI combined with gentamicin) was 1,000 fold, the “dinB, dinG, and yjiH promoter activity” value [1] was “DPI-dependent increase” and the pol promoter activity ([1]; compared to a ribosomal protein control (rrnB)) was “persistent, dose-dependent induction”. For the same compound, the “time to increased lexA promoter activity after DPI addition” value ([1]; lexA promoter) was ≤ 90 min, the “dose giving the highest promoter activity” value ([1]; pol promoter, dose where filamentation was observed) was 3 µg/mL and the “antagonism of ciprofloxacin and gentamicin” value (S. typhimuirium) was “also observed”. For the same compound, the “activity in viability screen” value [2] was “bactericidal activity”, the cell morphology (E. coli [3]) was “formation of bacterial filaments” and the “antagonism in growth inhibition assay” value (E. coli [4]) was “not observed”. The “activity in dose response, stationary versus exponential cultures (follow up of Enzo library hits)” value (E. coli strain BW25113) was “active against both stationary and growing cultures”, the “efficacy on adding a ROS scavenger (ascorbic acid)” value (E. coli strain BW25113; increasing concentrations of ascorbic acid) was “reduced DPI efficacy” and the “viability at intermediate concentrations” value (E. coli strain BW25113; intermediate DPI concentrations, GVA) was “maintained viability”. For the same compound, the “activity in aerobic versus anaerobic environments” value (E. coli strain BW25113; 24 hours) was “less active in anaerobic cultures”, the “ROS after the initial decrease” value ([5]; lethal DPI dose) was “rapid spike in ROS” and the “time to ROS nadir after the drug was added” value ([5]; lethal DPI dose) was “around 75 minutes”. The “effect on ROS (CellROX signal) over time” value [5] was “substantially decreased ROS”.
`Cc1cccc(CCN2CCC(C(=O)c3ccc(NS(C)(=O)=O)cc3)CC2)n1` [E-4031] was tested, and the “activity in dose response, stationary versus exponential cultures (follow up of Enzo library hits)” value (E. coli strain BW25113) was “did not have any dose-dependent effect on viability”.
With `CC1(C)S[C@@H]2[C@H](NC(=O)C(C(=O)O)c3ccccc3)C(=O)N2[C@H]1C(=O)O` (some centres unmarked) [carbenicillin] the “resistance of stationary phase cells compared with exponentially growing cells” value (E. coli strain BW25113; GVA) was “more resistant”, the “change in viable cells” value (E. coli strain BW25113; exponential cells, 10 μg/mL, after 24 hours treatment) was “increase in viable cells” and the “change in number of colonies” value (E. coli strain BW25113; exponential cells, 10 μg/mL, first 6 hours) was “no change in the number of colonies”. The decrease in viability (E. coli strain BW25113; exponential cells, 100 μg/mL, 24 hours) was 10,000 fold and the decline in viability (E. coli strain BW25113; stationary cells, 100 μg/mL, 24 hours) was < 10 fold.
`O=C(O)c1cn(C2CC2)c2cc(N3CCNCC3)c(F)cc2c1=O` [ciprofloxacin] was tested, and the pharmacodynamic profile (E. coli strain BW25113; 10 μg/mL, initial killing within an hour, stable through 6 hours, second phase by 24 hours) was “biphasic pharmacodynamic profile”, the “resistance of stationary phase cells compared with exponentially growing cells” value (E. coli strain BW25113; GVA) was “more resistant” and the reduction in viability (E. coli strain BW25113; exponentially growing cultures, 10 μg/mL) was 10 fold. The reduction in viability (E. coli strain BW25113; stationary cultures, 10 μg/mL) was 10 fold, the “activity in aerobic versus anaerobic environments” value (E. coli strain BW25113; 24 hours) was “less active in anaerobic cultures” and the “effect on ROS (CellROX signal) over time” value [5] was “monotonically increasing levels of ROS”.
With `CO[C@@]12[C@H](COC(N)=O)C3=C(C(=O)C(C)=C(N)C3=O)N1C[C@@H]1N[C@@H]12` [mitomycin C] the “activity in viability screen” value [2] was “bactericidal activity” and the “activity in dose response, stationary versus exponential cultures (follow up of Enzo library hits)” value (E. coli strain BW25113) was “more active against exponentially growing cells compared to cells in stationary phase”.
In the case of `NC(=Nc1ccccc1)NC(=O)c1nc(Cl)c(N)nc1N` [phenamil], the “activity in dose response, stationary versus exponential cultures (follow up of Enzo library hits)” value (E. coli strain BW25113) is reported as “did not have any dose-dependent effect on viability”.
`Cc1ccc(N(CC2=NCCN2)c2cccc(O)c2)cc1` [phentolamine] was tested, and the “sensitivity of stationary versus exponentially growing cells” value (E. coli strain BW25113; high concentrations (20 μg/mL)) was “stationary cells were more sensitive”.
With gentamicin the “resistance of stationary phase cells compared with exponentially growing cells” value (E. coli strain BW25113; GVA) was “more resistant”, the “activity in aerobic versus anaerobic environments” value (E. coli strain BW25113; 24 hours) was “less active in anaerobic cultures” and the “reduction in stationary phase cell viability” value (E. coli strain BW25113; stationary phase, 10 μg/mL, full 24 hours) was > 10 fold.
